Results: patent publication US20260355169A1, “METHODS OF TREATING CANCERS USING ISOQUINOLINE OR 6-AZA-QUINOLINE DERIVATIVES” (Black Diamond Therapeutics, Inc., priority 2022, published 2026)

Test system: BaF3 BRAF-KIAA1549 fusion cells
Assay: BaF3 BRAF-KIAA1549 fusion cell proliferation assay
Assay type: cell-based
Conditions: Mus musculus, BaF3, 96 h, read-out: IC50, inhibition of cell growth, BaF3-BRAF:KIAA1549 Fusion
Experimental: Retroviral Production: The BRAF-KIAA1549 fusion mutant was subcloned into pMXs-IRES-Blasticidin (RTV-016, Cell Biolabs, San Diego, CA). […]. Briefly, HEK 293T cells were plated in Poly-D-lysine coated 6-well plate (2.5×10^5 cells per well) and incubated overnight. The next day, retroviral plasmids (1 μg of BRAF-KIAA fusion mutant, 0.32 μg of pCMV-Gag-Pol and 0.165 μg pCMV-VSV-G) were mixed in 300 μL of Optimem (31985, Life Technologies). The mixture was incubated at room temperature for 5 minutes and then added to Optimem containing transfection reagent Lipofectamine (11668, Invitrogen) and incubated for 20 minutes. The mixture was then added dropwise to HEK 293T cells. The next day the medium was replaced with fresh culture medium and retrovirus was harvested at 24 hours.
Generation of BRAF-KIAA1549 fusion stable cell line: BaF3 cells were plated in V-bottom 96 well plate (COSTAR #3894) in 80 μL of RPMI/10% FBS and 0.01 ng/mL mouse IL-3, supplemented with 8 μg/mL polybrene (4×10^4 cells/well). Cells were transduced with 20 μL of BRAF-KIAA1549 fusion viral supernatant by centrifuging for 30 minutes at 1000 rpm. Cells were placed in a 37 °C incubator overnight. Next day 100 μL of RPMI/10% FBS and 0.01 ng/mL mouse IL-3 was added. After 24 hours, 100 μL of cells were transferred to a 24 well plate containing 900 μL of RPMI/10% FBS and 15 μg/mL Blasticidin. Contents of the 24 well plate were sampled for cell viability via CellTiterGlo (Promega) over a 2-week period.
Assay for cell proliferation: BaF3 BRAF-KIAA1549 fusion cells were resuspended at 1.5×10^5 c/mL in RPMI containing 10% Heat Inactivated FBS, 1% L-glutamine and dispensed in duplicate ([…]) into 384 well plates. To determine the effect of compound on cell proliferation, BaF3 BRAF-KIAA1549 fusion cells were incubated for 96 hours in the presence of vehicle control (DMSO) or compound at varying concentrations. Inhibition of cell growth was determined by luminescent quantification (Envision by Perkin Elmer) of intracellular ATP content using CellTiterGlo (Promega), according to the protocol provided by the manufacturer. To determine the IC50 values, the vehicle-treated cells were normalized as viable cells and analyzed using the CDD Vault, Collaborative Drug Discovery, Burlingame, CA (the Levenberg-Marquardt algorithm; Levenberg, K, […]; Marquardt, D., 1963).
Table A assigns each compound a code for potency in the BaF3 BRAF-KIAA1549 fusion cell proliferation assay: A, B, C, or D. According to the code, A represents an IC50 value<20 nM; B represents an IC50 value≥20 nM and <100 nM; C represents an IC50 value≥100 nM and <500 nM; and D represents an IC50 value≥500 nM.

| Structure (SMILES) | IC50 [nM] |
| --- | --- |
| CNc1cc2ncc(-c3cc(NC(=N)c4cc(C(F)(F)F)ccn4)ccc3C)cc2cn1 [compound 61] | 100 to 500 |
| CNc1cc2ncc(-c3ccc(F)c(NC(=O)c4cc(C(C)(C)C#N)ccn4)c3)cc2cn1 [compound 45] | 100 to 500 |
| CNc1ncc2cc(-c3cc(NC(=O)c4ccnc(C(C)(C)C#N)c4)cnc3C)cnc2c1C#N [compound 192] | 100 to 500 |
| CNc1cc2ncc(-c3cc(NC(=O)c4noc5c4CCCC5)ccc3C)cc2cn1 [compound 228] | 100 to 500 |
| CNc1ncc2cc(-c3cc(NC(=O)c4ccnc(C5(F)CC5)c4)ccc3C)cnc2c1Cl [compound 269] | 100 to 500 |
| CNc1cc2ncc(-c3cc(NC(=O)c4cnc5n4C(C)CCC5)ccc3C)cc2cn1 (stereo not drawn) [compound 205] | 100 to 500 |
| CNc1cc2ncc(-c3cc(NC(=O)c4nccc5c4OCCC5O)cnc3C)cc2cn1 (stereo not drawn) [compound 211] | > 500 |
| CNc1cc2ncc(-c3cc(NC(=O)c4cc(C(C)(C)C#N)ccn4)c(Cl)cc3C)cc2cn1 [compound 50] | 100 to 500 |
| CNc1cc2ncc(-c3cc(NC(=O)c4cccc5c4OC(C)C5)cnc3C)cc2cn1 (stereo not drawn) [compound 239] | > 500 |
| CNc1cc2ncc(-c3cc(NC(=O)c4noc5c4COCC5)cnc3C)cc2cn1 [compound 246] | > 500 |
| CCC(OC)c1ccnc(C(=O)Nc2cnc(C)c(-c3cnc4cc(NC)ncc4c3)c2)c1 (stereo not drawn) [compound 260] | 20 to 100 |
| CNc1cc2ncc(-c3cc(NC(=O)c4cccc5c4NC(=O)C5(C)C)ccc3C)cc2cn1 [compound 215] | 20 to 100 |
| CNc1cc2ncc(-c3cc(NC(=O)c4cc(C(C)(C)C#N)ccn4)cc(F)c3C)cc2cn1 [compound 38] | 20 to 100 |
| CNc1cc2ncc(-c3cc(NC(=O)c4cnc5n4C[C@H](C)CC5)cnc3C)cc2cn1 [compound 259] | 20 to 100 |
| Cc1ccc(NC(=O)c2cc(C(C)(C)C#N)ccn2)cc1-c1cnc2cc(N)ncc2c1 [compound 174] | 20 to 100 |
| CNc1cc2ncc(-c3cc(NC(=O)c4cnc5n4C[C@@H](C)CC5)ccc3C)cc2cn1 [compound 231] | 20 to 100 |
| CNc1cc2ncc(-c3cc(NC(=O)c4cc(C(F)(F)F)c(C)cn4)ccc3C)cc2cn1 [compound 5] | 20 to 100 |
| CNCC(F)(F)c1cccc(C(=O)Nc2cnc(C)c(-c3cnc4cc(NC)ncc4c3)c2)n1 [compound 250] | > 500 |
| CNc1cc2ncc(-c3cc(NC(=O)c4n[nH]c5c4CCCC5(C)C)ccc3C)cc2cn1 [compound 262] | 20 to 100 |
| CNc1cc2ncc(-c3cc(NC(=O)c4ccnc(C(F)F)c4)ccc3C)cc2cn1 [compound 8] | 20 to 100 |
| CNc1cc2ncc(-c3cc(NC(=O)C[C@H]4C[C@H](C(F)(F)F)CCO4)cnc3C)cc2cn1 [compound 36] | 100 to 500 |
| CNc1cc2ncc(-c3cc(NC(=O)c4cnn(CC(F)(F)F)c4C)cnc3C)cc2cn1 [compound 240] | > 500 |
| CNc1cc2ncc(-c3cc(NC(=O)c4noc5c4C[C@@H](C)CC5)ccc3C)cc2cn1 [compound 236] | 20 to 100 |
| CNc1cc2ncc(-c3cc(NC(=O)c4cc([C@H](O)C(C)(F)F)ccn4)cnc3C)cc2cn1 [compound 249] | 20 to 100 |
| CNc1cc2ncc(-c3cc(NC(=O)c4cccc5c4CCC5=O)cnc3C)cc2cn1 [compound 212] | > 500 |

The remaining lines, values ahead:

| IC50 [nM] | Structure (SMILES) |
| --- | --- |
| 20 to 100 | CNc1cc2ncc(-c3cc(NC(=O)[C@H](C)n4cnc(C(F)(F)F)n4)ccc3C)cc2cn1 [compound 68] |
| 20 to 100 | CNc1cc2ncc(-c3cc(NC(=O)c4cnc5n4CC(C(F)(F)F)CC5)cnc3C)cc2cn1 (stereo not drawn) [compound 243] |
| 20 to 100 | CNc1cc2ncc(-c3cc(NC(=O)c4csc5c4CCCC5)cnc3C)cc2cn1 [compound 234] |
| 20 to 100 | CNc1cc2ncc(-c3cc(NC(=O)c4nccc(C(C)C)c4Cl)cnc3C)cc2cn1 [compound 256] |
| 20 to 100 | CNc1cc2ncc(-c3cc(NC(=O)c4cc(C(C)(C)C#N)ccn4)nnc3C)cc2cn1 [compound 77] |
| 20 to 100 | CNc1cc2ncc(-c3cc(C(=O)Nc4cc(C(C)(C)C#N)ccn4)ccc3C)cc2cn1 [compound 53] |
| 20 to 100 | CNc1cc2ncc(-c3cc(NC(=O)c4cc(C(F)F)ccn4)ccc3C)cc2cn1 [compound 11] |
| 20 to 100 | CNc1cc2ncc(-c3cc(NC(=O)c4cc(C(C)(F)F)ccn4)ccc3C)cc2cn1 [compound 12] |
| 20 to 100 | CNc1cc2ncc(-c3cc(NC(=O)c4cc(C(C)(C)C#N)ccn4)cc(F)c3Cl)cc2cn1 [compound 44] |
| < 20 | CNc1cc2ncc(-c3cc(NC(=O)c4ccnc(C(C)(F)F)c4)ccc3C)cc2cn1 [compound 9] |
| 20 to 100 | CNc1cc2ncc(-c3cc(NC(=O)c4cc(C(C)(C)C#N)ccn4)ccc3F)cc2cn1 [compound 40] |
| 20 to 100 | CNc1cc2ncc(-c3cc(NC(=O)CN4CCC[C@H](C(F)(F)F)C4)cnc3C)cc2cn1 [compound 62] |
| 20 to 100 | CNc1cc2ncc(-c3cc(NC(=O)c4cc(C(C)(C)C#N)ccn4)c(F)cc3C)cc2cn1 [compound 42] |
| 20 to 100 | Cc1ncc(NC(=O)c2cc(C(C)(C)C#N)ccn2)cc1-c1cnc2cc(N)ncc2c1 [compound 176] |
| 20 to 100 | CNc1cc2ncc(-c3cc(NC(=O)c4c[nH]c5ccccc45)cnc3C)cc2cn1 [compound 194] |
| < 20 | CNc1cc2ncc(-c3cc(NC(=O)c4cc(C(F)(F)F)c(F)cn4)cnc3C)cc2cn1 [compound 60] |
| 20 to 100 | CNc1cc2ncc(-c3cc(NC(=O)c4noc5c4CC(C)(C)CC5)cnc3C)cc2cn1 [compound 257] |
| < 20 | CNc1cc2ncc(-c3cc(NC(=O)c4c[nH]c5ccc(C)cc45)ccc3C)cc2cn1 [compound 263] |
| 20 to 100 | CNc1cc2ncc(-c3cc(NC(=O)c4cccc(C5(C#N)CC5)c4)cnc3C)cc2cn1 [compound 191] |

| IC50 [nM] | Structure (SMILES) |
| --- | --- |
| < 20 | CNc1cc2ncc(-c3cc(NC(=O)c4cc(C(NC)C(F)(F)F)ccn4)ccc3C)cc2cn1 (stereo not drawn) [compound 203] |
| 20 to 100 | CNc1cc2ncc(-c3cc(NC(=O)CN4CCC[C@H](C(F)(F)F)C4)ccc3C)cc2cn1 [compound 63] |
| 20 to 100 | CNc1cc2ncc(-c3cc(NC(=O)c4cc(C(F)(F)F)c(C)cn4)cnc3C)cc2cn1 [compound 25] |
| 20 to 100 | CNc1cc2ncc(-c3cc(NC(=O)c4cc(C(C)(F)F)ccn4)cnc3C)cc2cn1 [compound 23] |
| 20 to 100 | CNc1cc2ncc(-c3cc(NC(=O)c4cc(C(F)F)ccn4)cnc3C)cc2cn1 [compound 22] |
| < 20 | CNc1cc2ncc(-c3cc(NC(=O)c4cnn5c4CC(C)CC5)ccc3C)cc2cn1 (stereo not drawn) [compound 265] |
| 20 to 100 | CNc1cc2ncc(-c3cc(NC(=O)c4csc5c4CCC(C)C5)cnc3C)cc2cn1 (stereo not drawn) [compound 235] |
| 20 to 100 | CNc1cc2ncc(-c3cc(C(=O)Nc4cc(C(C)(C)C#N)ccn4)cnc3C)cc2cn1 [compound 59] |
| 20 to 100 | Cc1ccc(NC(=O)c2cc(C(F)F)ccn2)cc1-c1cnc2cc(NCCC#N)ncc2c1 [compound 78] |
| 20 to 100 | CNc1cc2ncc(-c3cc(NC(=O)c4n[nH]c5c4C[C@H]4C[C@@H]54)cnc3C)cc2cn1 [compound 253] |
| 20 to 100 | CNc1cc2ncc(-c3cc(NC(=O)c4cnc5n4CC(C(F)F)CC5)ccc3C)cc2cn1 (stereo not drawn) [compound 238] |
| 20 to 100 | CNc1cc2ncc(-c3cc(NC(=O)c4c[nH]c5c4CC(C)CC5)ccc3C)cc2cn1 (stereo not drawn) [compound 266] |
| < 20 | CNc1cc2ncc(-c3cc(NC(=O)c4cccc(N(C)C)c4)ccc3C)cc2cn1 [compound 4] |
| < 20 | CNc1cc2ncc(-c3cc(NC(=O)c4cccc(C(C)(F)F)c4)cnc3C)cc2cn1 [compound 200] |
| < 20 | CNc1cc2ncc(-c3cc(NC(=O)c4cc(C5(C#N)CC5)ccn4)cnc3C)cc2cn1 [compound 32] |
| < 20 | CNc1cc2ncc(-c3cc(NC(=O)c4ccnc(C(C)(F)F)c4)cnc3C)cc2cn1 [compound 29] |
| < 20 | CNc1cc2ncc(-c3cc(NC(=O)c4ccnc(C5(F)CC5)c4)cnc3C)cc2cn1 [compound 33] |
| < 20 | CNc1cc2ncc(-c3cc(NC(=O)c4cc(C(C)(C)C#N)ccn4)ccc3C)cc2cn1 [compound 14] |
| < 20 | CNc1cc2ncc(-c3cc(NC(=O)c4ccnc(C(F)(F)F)c4)cnc3C)cc2cn1 [compound 27] |
